Measurements from PubChem BioAssay AID248 (DTP/NCI, 2004).
“And” between values parts separate entries of the source, which are not always exact repeats. Equal entries are not always repeated. Toxic doses and inconclusive results are not listed. Rule as the data show it: active = T/C of 150% or more; inactive = T/C below 125%.

Test system: L1210 leukemia ip in BDF1 mice, survival T/C
Test: NCI In Vivo Anticancer Drug Screen. Data for tumor model L1210 Leukemia (intraperitoneal) in B6D2F1 (BDF1) mice
Conditions: endpoint: mean survival time, higher = longer survival
Summary of the method: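 Mice bearing the transplanted tumor received compound or vehicle. Survival of the treated group was divided by that of the vehicle-treated control group to give the ratio.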

[1] = dose: 100.0 mg/kg/injection, schedule: Q04DX003 (ip), vehicle: Klucel (hydroxypropylcellulose) (HPC)
[2] = dose: 200.0 mg/kg/injection, schedule: Q04DX003 (ip), vehicle: Klucel (hydroxypropylcellulose) (HPC)
[3] = dose: 400.0 mg/kg/injection, schedule: Q04DX003 (ip), vehicle: Klucel (hydroxypropylcellulose) (HPC)
[4] = dose: 100.0 mg/kg/injection, schedule: Q01DX009 (ip), vehicle: saline with Tween-80
[5] = dose: 100.0 mg/kg/injection, schedule: Q01DX001 (ip), vehicle: Klucel (hydroxypropylcellulose) (HPC)
[6] = dose: 100.0 mg/kg/injection, schedule: Q01DX009 (ip), vehicle: Klucel (hydroxypropylcellulose) (HPC)
[7] = dose: 200.0 mg/kg/injection, schedule: Q01DX001 (ip), vehicle: Klucel (hydroxypropylcellulose) (HPC)
[8] = dose: 200.0 mg/kg/injection, schedule: Q01DX009 (ip), vehicle: Klucel (hydroxypropylcellulose) (HPC)
[9] = dose: 400.0 mg/kg/injection, schedule: Q01DX009 (ip), vehicle: Klucel (hydroxypropylcellulose) (HPC)
[10] = dose: 200.0 mg/kg/injection, schedule: Q01DX009 (ip), vehicle: saline with Tween-80

Measured: T/C

CC12CCC(C)(O1)C1C(=O)OC(=O)C12 (stereo unspecified)
inactive: [1] 96 % of control | [2] 98 % of control | [3] 98 % of control

C1=C(c2ccccc2)CC(/C=C/c2ccccc2)(c2ccccc2)C1c1ccccc1 (stereo unspecified)
inactive: [4] 87 % of control

CC(C)=C1C2C=CC1C(C(=O)N(C)C)C2C(=O)N(C)C (stereo unspecified)
inactive: dose: 100.0 mg/kg/injection, schedule: Q01DX009 (ip), vehicle: saline 96 % of control | dose: 100.0 mg/kg/injection, schedule: Q04DX003 (ip), vehicle: saline 113 % of control | dose: 200.0 mg/kg/injection, schedule: Q01DX009 (ip), vehicle: saline 98 % of control | dose: 200.0 mg/kg/injection, schedule: Q04DX003 (ip), vehicle: saline 108 % of control | dose: 400.0 mg/kg/injection, schedule: Q01DX009 (ip), vehicle: saline 104 % of control | dose: 400.0 mg/kg/injection, schedule: Q04DX003 (ip), vehicle: saline 100 % of control

Cc1cc(N(CCCl)CCCl)ccc1C1N(Cc2ccccc2N(C)C)CCCN1Cc1ccccc1N(C)C
inactive: dose: 4.0 mg/kg/injection, schedule: Q12HX018 (ip), vehicle: other 101 % of control | dose: 6.0 mg/kg/injection, schedule: Q12HX018 (ip), vehicle: other 98 % of control | dose: 8.0 mg/kg/injection, schedule: Q12HX018 (ip), vehicle: Klucel (hydroxypropylcellulose) (HPC) 102 % of control | dose: 8.0 mg/kg/injection, schedule: Q12HX018 (ip), vehicle: other 109 % of control | dose: 16.0 mg/kg/injection, schedule: Q12HX018 (ip), vehicle: Klucel (hydroxypropylcellulose) (HPC) 107 % of control | dose: 32.0 mg/kg/injection, schedule: Q12HX018 (ip), vehicle: Klucel (hydroxypropylcellulose) (HPC) 105 % of control

Cc1nc(N)[nH]c(=O)c1CCCCC#N
inactive: [5] 100 % of control | [6] 93 % of control and 106 % of control | dose: 100.0 mg/kg/injection, schedule: Q04DX002 (ip), vehicle: Klucel (hydroxypropylcellulose) (HPC) 100 % of control and 102 % of control | [1] 97 % of control | [7] 100 % of control | [8] 95 % of control and 100 % of control | dose: 200.0 mg/kg/injection, schedule: Q04DX002 (ip), vehicle: Klucel (hydroxypropylcellulose) (HPC) 102 % of control and 107 % of control | [2] 111 % of control | dose: 400.0 mg/kg/injection, schedule: Q01DX001 (ip), vehicle: Klucel (hydroxypropylcellulose) (HPC) 100 % of control | [9] 117 % of control | dose: 400.0 mg/kg/injection, schedule: Q04DX002 (ip), vehicle: Klucel (hydroxypropylcellulose) (HPC) 100 % of control and 104 % of control | [3] 102 % of control

CCOC(=O)c1c(Cl)c(Cl)c(Cl)c(Cl)c1C(=O)O
inactive: dose: 100.0 mg/kg/injection, schedule: Q01DX001 (ip), vehicle: saline with Tween-80 95 % of control | [4] 96 % of control | dose: 200.0 mg/kg/injection, schedule: Q01DX001 (ip), vehicle: saline with Tween-80 97 % of control | [10] 102 % of control | dose: 400.0 mg/kg/injection, schedule: Q01DX001 (ip), vehicle: saline with Tween-80 115 % of control

Cc1cc(C)c(NC(=O)Nc2ccccc2)c(C)c1
inactive: [6] 96 % of control | [1] 98 % of control | [8] 104 % of control | [2] 98 % of control | [9] 95 % of control | [3] 101 % of control

CC(=O)OC1CCC2(C)C(CCC3(C)C2CC=C2C4C(C)C(C)CCC4(C)CCC23C)C1(C)C (stereo unspecified)
inactive: [1] 91 % of control | [2] 88 % of control | [3] 90 % of control

O=C1OC2CCCCC2c2ccccc21 (stereo unspecified)
inactive: [4] 98 % of control | [10] 103 % of control | dose: 400.0 mg/kg/injection, schedule: Q01DX009 (ip), vehicle: saline with Tween-80 103 % of control

Nc1ncc(CSCc2ccccc2)c(-c2ccccc2)n1
inactive: dose: 100.0 mg/kg/injection, schedule: Q04DX002 (ip), vehicle: saline with Tween-80 100 % of control | dose: 200.0 mg/kg/injection, schedule: Q04DX002 (ip), vehicle: saline with Tween-80 96 % of control | dose: 400.0 mg/kg/injection, schedule: Q04DX002 (ip), vehicle: saline with Tween-80 96 % of control

O=C(COc1ccc(Cl)c(Cl)c1)NCc1cc[n+](Cc2ccc(S(=O)(=O)F)cc2)cc1
inactive: [5] 95 % of control | [7] 95 % of control

O=c1[nH][nH]c(=O)c2nc3ccccc3nc12
inactive: [6] 97 % of control | [1] 94 % of control | [8] 100 % of control | [2] 97 % of control | [9] 93 % of control | [3] 92 % of control
